Earlier results on one molecule are cited in patent US6943193B1, “Method for treating sexual dysfunction” (priority 2003, dated 2005).

The series deals with erectile dysfunction.

Where only a bound is given, the exact number is not on record here.

For `CCCc1nn(C)c2c(=O)[nH]c(-c3cc(S(=O)(=O)N4CCN(C)CC4)ccc3OCC)nc12` [sildenafil], the efficacy (clinical practice) was roughly 50%. In addition, under “initial reports”, the success rates was no more than 85%.
